Among the data in patent publication US7285556B2, “Thienopyrimidine-based inhibitors of the src family” (Board of Regents, The University of Texas Systems, priority 2000, dated 2007) are IC50 values, retold here.

Molecules are shown by their SMILES. Where two headings read alike, the source gives them in different places.

The test deals with T1, Recombinant human Src (Homo sapiens, UniProt P12931).
T1 construct: made in house; host or cells: baculovirus-insect cell system
The test is described as follows: Src tyrosine kinase activity, poly E4Y and 32P-ATP. Format: biochemical. On the procedure: Recombinant human Src was expressed using the baculovirus-insect cell system and purified as published (Budde et al., 1993 and 2000). Recombinant Csk and the FGF receptor (FGFr) were expressed as glutathione-S-transferase fusion proteins using the pGEX expression vector and E. coli, and purified as described (Sun & Budde, 1995).
The tyrosine kinase activity of Src, Csk and FGFr was determined using poly E4Y and ^32P-ATP. Briefly, enzymes were assayed in a reaction mixture consisting of 0.15 M EPPS-NaOH (pH 8.0) with 6 mM MgCl2, 0.2 mM γ^32P-ATP (0.2-0.4 mCi/μmol), 10% glycerol, 0.1% Triton X-100, and poly E4Y. Poly E4Y is a synthetic peptide whose phosphorylation is measured in this assay by the addition of the radioactively labeled phosphate from the ATP (Budde et al., 1995). […] When ATP was varied (0, 50, 100 and 250 μM), poly E4Y was kept constant at 150 μg/ml.

Setting [1] is: read-out: IC50 (preferred compounds for treatment of Src family-related disease).
The mark [2] stands for this setting: Table 2, read-out: Src IC50 (especially good inhibitors of Src).

T1 sequence (P12931 whole entry): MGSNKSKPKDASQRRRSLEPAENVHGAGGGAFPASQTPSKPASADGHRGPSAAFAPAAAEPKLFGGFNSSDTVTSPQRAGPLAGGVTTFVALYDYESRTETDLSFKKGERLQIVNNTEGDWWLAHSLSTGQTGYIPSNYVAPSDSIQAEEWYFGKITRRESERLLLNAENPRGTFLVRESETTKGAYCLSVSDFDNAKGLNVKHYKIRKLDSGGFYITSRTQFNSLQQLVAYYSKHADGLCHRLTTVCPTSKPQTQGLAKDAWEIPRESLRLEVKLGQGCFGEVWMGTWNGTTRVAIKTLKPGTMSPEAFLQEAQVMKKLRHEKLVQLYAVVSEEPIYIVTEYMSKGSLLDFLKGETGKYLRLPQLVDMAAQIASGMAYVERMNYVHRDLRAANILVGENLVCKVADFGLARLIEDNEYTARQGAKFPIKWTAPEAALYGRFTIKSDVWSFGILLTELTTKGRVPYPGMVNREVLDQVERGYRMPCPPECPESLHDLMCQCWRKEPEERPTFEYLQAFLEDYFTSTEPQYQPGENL

By IC50 is commonly meant the concentration needed to halve the response being measured. Consider `Cc1c(C(O)c2cccs2)sc2c(NN=Cc3cccnc3)ncnc12` (stereo not drawn) [Compound 487, 3-Pyridinecarboxaldehyde(6-(1-hydroxy-1-[2-thienyl])methyl-7-methylthieno[3,2-d]pyrimidin-4-yl)hydrazone], for which the half-inhibitory concentration (IC50) under setting [1] was less than 2 µM.
On to `Cc1c(C(O)C2CCCCC2)sc2c(NN=Cc3cccnc3)ncnc12` (stereo not drawn) [Compound 469, 3-Pyridinecarboxaldehyde(6-(1-cyclohexyl-1-hydroxy)methyl-7-methylthieno[3,2-d]pyrimidin-4-yl)hydrazone], for which the IC50 by setting is: under setting [2], no more than 2 µM; under setting [1], less than 2 µM.
In the case of `Cc1c(C(=O)O)sc2c(NN=Cc3cccnc3)ncnc12` [Compound 465, 3-Pyridinecarboxaldehyde(6-carboxy-7-methylthieno[3,2-d]pyrimidin-4-yl)hydrazone], the IC50 runs as follows: under setting [2], no more than 2 µM; under setting [1], less than 2 µM.
For `Cc1c(I)sc2c(NN=Cc3ccc(C(=O)O)cc3)ncnc12` [Compound 373, 4-Carboxybenzaldehyde(6-iodo-7-methylthieno[3,2-d]pyrimidin-4-yl)hydrazone], in that order: no more than 2 µM and less than 2 µM.
In the case of `Cc1csc2c(NN=Cc3ccc(O)c(Cl)c3)ncnc12` [Compound 55, 3-Chloro-4-hydroxybenzaldehyde(7-methylthieno[3,2-d]pyrimidin-4-yl)hydrazone], the IC50 is no more than 2 µM under setting [2] and less than 2 µM under setting [1].
With `COc1ccc(C=NNc2ncnc3c(C)c(C(=O)O)sc23)cc1O` [Compound 468, 3-Hydroxy-4-methoxybenzaldehyde(6-carboxy-7-methylthieno[3,2-d]pyrimidin-4-yl)hydrazone], the IC50 is no more than 2 µM under setting [2] and less than 2 µM under setting [1].
For the molecule `Cc1csc2c(NN=CC3CC3)ncnc12` [Compound 178, Cyclopropanecarboxaldehyde(7-methylthieno[3,2-d]pyrimidin-4-yl)hydrazone], the IC50 under setting [2] was no more than 2 µM and the IC50 under setting [1] is less than 2 µM.
On the same counts, the results for `Cc1c(C(O)c2cccnc2)sc2c(NN=Cc3cccs3)ncnc12` (stereo not drawn) [Compound 485, 2-Thiophenecarboxaldehyde(6-(1-hydroxy-1-[3-pyridyl])methyl-7-methylthieno[3,2-d]pyrimidin-4-yl)hydrazone] are no more than 2 µM and less than 2 µM.
On the same counts, the results for `COc1ccc(C=NNc2ncnc3c(C)c(C(O)c4ccsc4)sc23)cc1O` (stereo not drawn) [Compound 464, 3-Hydroxy-4-methoxybenzaldehyde(6-(1-hydroxy-1-[3-thienyl])methyl-7-methylthieno[3,2-d]pyrimidin-4-yl)hydrazone] are no more than 2 µM and less than 2 µM.
On the same counts, the results for `COc1ccc(C=NNc2ncnc3c(C)c(CO)sc23)cc1O` [Compound 478, 3-Hydroxy-4-methoxybenzaldehyde(6-hydroxymethyl-7-methylthieno[3,2-d]pyrimidin-4-yl)hydrazone] are no more than 2 µM and less than 2 µM.
`Cc1c(C(O)c2cccs2)sc2c(NN=Cc3cccs3)ncnc12` (stereo not drawn) [Compound 489, 2-Thiophenecarboxaldehyde(6-(1-hydroxy-1-[2-thienyl])methyl-7-methylthieno[3,2-d]pyrimidin-4-yl)hydrazone]: the IC50 was no more than 2 µM under setting [2] and less than 2 µM under setting [1].
For `COc1ccc(C=NNc2ncnc3c(C)c(C(O)c4cccnc4)sc23)cc1O` (stereo not drawn) [Compound 486, 3-Hydroxy-4-methoxybenzaldehyde(6-(1-hydroxy-1-[3-pyridyl])methyl-7-methylthieno[3,2-d]pyrimidin-4-yl)hydrazone], in that order: no more than 2 µM and less than 2 µM.
For the molecule `Cc1[nH]cnc1C=NNc1ncnc2c(C)csc12` [Compound 100, 5-Methyl-1H-imidazole-4-carboxaldehyde(7-methylthieno[3,2-d]pyrimidin-4-yl)hydrazone], the IC50 under setting [2] is no more than 2 µM and the IC50 under setting [1] is less than 2 µM.
Turning to `Cc1csc2c(NN=Cc3c[nH]cn3)ncnc12` [Compound 42, 1H-Imidazole-4-carboxaldehyde(7-methylthieno[3,2-d]pyrimidin-4-yl)hydrazone], the 50% inhibitory concentration (IC50) by setting is: under setting [2], no more than 2 µM; under setting [1], less than 2 µM.
For `Cc1c(CO)sc2c(NN=Cc3cccnc3)ncnc12` [Compound 476, 3-Pyridinecarboxaldehyde(6-hydroxymethyl-7-methylthieno[3,2-d]pyrimidin-4-yl)hydrazone], in that order: no more than 2 µM and less than 2 µM.
For the molecule `O=C(O)c1ccc(C=NNc2ncnc3cc(-c4ccc(F)cc4)sc23)cc1` [Compound 280, 4-Carboxybenzaldehyde(6-(4-fluorophenyl)thieno[3,2-d]pyrimidin-4-yl)hydrazone], the concentration for half-maximal inhibition (IC50) is, setting by setting: under setting [2], no more than 2 µM; under setting [1], less than 2 µM.
As to `Cc1c(C(=O)O)sc2c(NN=Cc3ccc(C(=O)O)cc3)ncnc12` [Compound 466, 4-Carboxybenzaldehyde(6-carboxy-7-methylthieno[3,2-d]pyrimidin-4-yl)hydrazone], the IC50 runs as follows: under setting [2], no more than 2 µM; under setting [1], less than 2 µM.
For `COc1cccc(-c2sc3c(NN=Cc4ccc(C(=O)O)cc4)ncnc3c2C)c1` [Compound 427, 4-Carboxybenzaldehyde(6-(3-methoxyphenyl)-7-methylthieno[3,2-d]pyrimidin-4-yl)hydrazone], in that order: no more than 2 µM and less than 2 µM.
As to `COc1ccc(C=NNc2ncnc3c(C)c(-c4ccc(C(=O)O)cc4)sc23)cc1O` [Compound 456, 3-Hydroxy-4-methoxybenzaldehyde(6-(4-carboxyphenyl)-7-methylthieno[3,2-d]pyrimidin-4-yl)hydrazone], the IC50 by setting is: under setting [2], no more than 2 µM; under setting [1], less than 2 µM.
Regarding `O=C(O)c1ccc(C=NNc2ncnc3cc(-c4ccccc4Cl)sc23)cc1` [Compound 318, 4-Carboxybenzaldehyde(6-(2-chlorophenyl)thieno[3,2-d]pyrimidin-4-yl)hydrazone], the half-inhibitory concentration (IC50) under setting [2] was no more than 2 µM and the IC50 under setting [1] was less than 2 µM.
On the same counts, the results for `CS(=O)(=O)c1ccc(-c2cc3ncnc(NN=Cc4ccc(C(=O)O)cc4)c3s2)cc1` [Compound 291, 4-Carboxybenzaldehyde(6-(4-methanesulphonylphenyl)thieno-[3,2-d]pyrimidin-4-yl)hydrazone] are no more than 2 µM and less than 2 µM.
For `Cc1c(C(O)c2cccs2)sc2c(NN=Cc3ccc(C(=O)O)cc3)ncnc12` (stereo not drawn) [Compound 488, 4-Carboxybenzaldehyde(6-(1-hydroxy-1-[2-thienyl])methyl-7-methylthieno[3,2-d]pyrimidin-4-yl)hydrazone], in that order: no more than 2 µM and less than 2 µM.
On the same counts, the results for `Cc1c(CO)sc2c(NN=Cc3ccc(C(=O)O)cc3)ncnc12` [Compound 477, 4-Carboxybenzaldehyde(6-hydroxymethyl-7-methylthieno[3,2-d]pyrimidin-4-yl)hydrazone] are no more than 2 µM and less than 2 µM.
Regarding `O=C(O)c1ccc(C=NNc2ncnc3cc(I)sc23)cc1` [Compound 395, 4-Carboxybenzaldehyde(6-iodothieno[3,2-d]pyrimidin-4-yl)hydrazone], the IC50 reads like this: under setting [2], no more than 2 µM; under setting [1], less than 2 µM.
Consider `COc1ccc(C=NNc2ncnc3c(C)c(C(O)C4CCCCC4)sc23)cc1O` (stereo not drawn) [Compound 472, 3-Hydroxy-4-methoxybenzaldehyde(6-(1-cyclohexyl-1-hydroxy)methyl-7-methylthieno[3,2-d]pyrimidin-4-yl)hydrazone], for which the IC50 under setting [2] was no more than 2 µM and the IC50 under setting [1] was less than 2 µM.
On the same counts, the results for `Cc1c(C(O)c2ccccc2)sc2c(NN=Cc3cccs3)ncnc12` (stereo not drawn) [Compound 459, 2-Thiophenecarboxaldehyde(6-(1-hydroxy-1-phenyl)methyl-7-methylthieno[3,2-d]pyrimidin-4-yl)hydrazone] are no more than 2 µM and less than 2 µM.
For `COc1ccccc1-c1sc2c(NN=Cc3ccc(C(=O)O)cc3)ncnc2c1C` [Compound 433, 4-Carboxybenzaldehyde(6-(2-methoxyphenyl)-7-methylthieno[3,2-d]pyrimidin-4-yl)hydrazone], in that order: no more than 2 µM and less than 2 µM.
Consider `Cc1c(C(O)c2ccsc2)sc2c(NN=Cc3cccs3)ncnc12` (stereo not drawn) [Compound 463, 2-Thiophenecarboxaldehyde(6-(1-hydroxy-1-[3-thienyl])methyl-7-methylthieno[3,2-d]pyrimidin-4-yl)hydrazone], for which the IC50 is no more than 2 µM under setting [2] and less than 2 µM under setting [1].
`Cc1csc2c(NN=Cc3ccc(O)c(O)c3)ncnc12` [Compound 23, 3,4-Dihydroxybenzaldehyde(7-methylthieno[3,2-d]pyrimidin-4-yl)hydrazone]: the IC50 under setting [2] was no more than 2 µM and the half-inhibitory concentration (IC50) under setting [1] is less than 2 µM.
Regarding `COc1ccc(C=NNc2ncnc3c(C)c(-c4ccccc4OC)sc23)cc1O` [Compound 435, 3-Hydroxy-4-methoxybenzaldehyde(6-(2-methoxyphenyl)-7-methylthieno[3,2-d]pyrimidin-4-yl)hydrazone], the IC50 is no more than 2 µM under setting [2] and less than 2 µM under setting [1].
For `COc1ccc(-c2cc3ncnc(NN=Cc4ccc(C(=O)O)cc4)c3s2)cc1` [Compound 406, 4-Carboxybenzaldehyde(6-(4-methoxyphenyl)thieno[3,2-d]pyrimidin-4-yl)hydrazone], in that order: no more than 2 µM and less than 2 µM.
Turning to `O=C(O)c1ccc(C=NNc2ncnc3cc(-c4cccc(Cl)c4)sc23)cc1` [Compound 305, 4-Carboxybenzaldehyde(6-(3-chlorophenyl)thieno[3,2-d]pyrimidin-4-yl)hydrazone], the concentration for half-maximal inhibition (IC50) is no more than 2 µM under setting [2] and less than 2 µM under setting [1].
